This test relates to stably HCV RNA-replicating cell line, AVA5. Nature of the test: Antiviral Activity (HCV Replicon Assay). Particulars: intracellular HCV RNA levels (blot hybridization, normalized to B-actin RNA) in AVA5 cells (Huh7-derived), compound once daily for three days, read 24 hours after last dose. Format: cell-based. The procedure:
HCV NS5B Polymerase Assay
Antiviral activity of the test compounds is assessed (Okuse et al., Antiviral Res. 2005, 65, 23-34) in the stably HCV RNA-replicating cell line, AVA5, derived by transfection of the human hepatoblastoma cell line, Huh7 (Blight et al., Sci. 2000, 290, 1972). Compounds are added to dividing cultures once daily for three days. Media is changed with each addition of compound. Cultures generally start the assay at 30-50% confluence and reach confluence during the last day of treatment. Intracellular HCV RNA levels and cytotoxicity are assessed 24 hours after the last dose of compound.
Triplicate cultures for HCV RNA levels (on 48-well and 96-well plates) and cytotoxicity (on 96-well plates) are used. A total of six untreated control cultures, and triplicate cultures treated with α-interferon and ribavirin serve as positive antiviral and toxicity controls.
Intracellular HCV RNA levels are measured using a conventional blot hybridization method in which HCV RNA levels are normalized to the levels of B-actin RNA in each individual culture (Okuse et al., Antivir. Res. 2005, 65, 23-34). Cytotoxicity is measured using a neutral red dye uptake assay (Korba and Gerin, Antivir. Res. 1992, 19, 55). HCV RNA levels in the treated cultures are expressed as a percentage of the mean levels of RNA detected in untreated cultures.
`CC(C)(C)OC(=O)COP(=O)(COCCC(CN)n1cnc2c(N)ncnc21)OCC(=O)OC(C)(C)C` (racemic) [Compound 34d, (±)-9-[(1-Aminomethyl)(3-(di-tert-butyloxycarbonylmethylphosphono)methoxy)propyl]-adenine]: the “% Inhibition at 10 μM” value was determined as 60%.
The figure for `CC(C)(C)OC(=O)COP(=O)(COCCC(CCO)n1cnc2c(N)ncnc21)OCC(=O)OC(C)(C)C` (racemic) [Compound 34e, (±)-9-[(1-(2-Hydroxy)ethyl)(3-(di-tert-butyloxycarbonylmethylphosphono)methoxy)propyl]-adenine] is 41%.
The figure for `CC(O)CC(COCP(=O)(OCOC(=O)C(C)(C)C)OCOC(=O)C(C)(C)C)n1cnc2c(N)ncnc21` (racemic) [Compound 56f, (±)-9-[1-[(Di-tert-butylcarbonyloxymethylphosphonomethoxy)methyl][(3-hydroxy)butyl]adenine] is 62%; for `CC(C)(C)OC(=O)COP(=O)(COCCC(CO)n1cnc2c(NC3CCCC3)ncnc21)OCC(=O)OC(C)(C)C` (racemic) [Compound 73k, (±)-9-[(1-Hydroxymethyl)(3-(di-tert-butyloxycarbonylmethylphosphono)methoxy)propyl]-6-cyclopentylaminopurine] it is 36%.
Regarding `CC(C)(C)OC(=O)COP(=O)(COCCC(CO)n1cnc2c(-c3ccccc3)ncnc21)OCC(=O)OC(C)(C)C` (racemic) [Compound 76a, (±)-9-[(1-Hydroxymethyl)(3-(di-tert-butyloxycarbonylmethylphosphono)methoxy)propyl]-6-phenylpurine], the “% Inhibition at 10 μM” value was 35%.
With `CC(C)(C)OC(=O)COP(=O)(COCCC(CO)n1cnc2c(-c3ccsc3)ncnc21)OCC(=O)OC(C)(C)C` (racemic) [Compound 76b, (±)-9-[(1-Hydroxymethyl)(3-(di-tert-butyloxycarbonylmethylphosphono)methoxy)propyl]-6-(3-thiophenyl)purine], the “% Inhibition at 10 μM” value came out at 18%.
`CC(O)C(COCP(=O)(OCC(=O)OC(C)(C)C)OCC(=O)OC(C)(C)C)n1cnc2c(-c3ccccc3)ncnc21` (racemic) [Compound 79a, (±)-9-[(1-Hydroxyethyl)(3-(di-tert-butyloxycarbonylmethylphosphono)methoxy)ethyl]-6-phenylpurine]: the “% Inhibition at 10 μM” value came to 48%.
With `C=C(CCOCP(=O)(OCC(=O)OC(C)(C)C)OCC(=O)OC(C)(C)C)n1cnc2c(N)ncnc21` [Compound 34h, (±)-9-[(1-Methylene)(3-(di-tert-butyloxycarbonylmethylphosphono)methoxy)propyl]-adenine], the “% Inhibition at 10 μM” value stood at 35%.

The values are drawn from patent US7388002B2, “Nucleosides, preparation thereof and use as inhibitors of RNA viral polymerases” (BioCryst Pharmaceuticals, Inc., priority 2001, dated 2008).
